The source of these data is patent EP0146219A1, “Aminophosphonic & aminophosphinic acid derivatives processes for their preparation & herbicidal compositions containing them” (priority 1983, dated 1985).

Where a name gives a salt, the structure may show the parent alone.

One series has as its system various plant species. Nature of the series: post-emergence herbicidal activity, overall comparison. Format: in vivo. As to conditions: for herbicidal activity compared with the related amine (IPA) salt: post-emergence, Tables II and III. The text has this: (§1) The spray, a water solution containing active ingredient and a surfactant is applied to the plants in different sets of pans at several rates (kilogram per dunam) of active ingredient. The treated plants are placed in a greenhouse and the effects are observed and recorded after 4 days (table II) and after 2 weeks (table III). The post-emergence herbicidal activity index used in Table II and III is as follows: […]

The test system of a further series is Pennisetum clandestinum. Nature of the series: post-emergence herbicidal activity (spray, greenhouse). Also: key: 0: No injury; 1: Slight injury; 2: Moderate injury; 3: Severe injury; 4: Killed. To be noted: after 2 weeks; spray to 21 day old plants; active ingredient mole/l: I 0.022, II 0.043, III 0.03, IV 0.043, V 0.043. The class given is in vivo.
Excerpt: as §1

A further series deals with Avena sterilis. The series is described as above. Format: in vivo. As to conditions: after 2 weeks; spray to 21 day old plants; active ingredient mole/l: I 0.022, II 0.043, III 0.03, IV 0.043, V 0.043.
Excerpt: as §1

The test system of another series is Inula Viscosa. The series is described as above. The class given is in vivo. To be noted: after 2 weeks; spray to 21 day old plants; active ingredient mole/l: I 0.022, II 0.043, III 0.03, IV 0.043, V 0.043. Also: key: 0: No injury; 1: Slight injury; 2: Moderate injury; 3: Severe injury; 4: Killed.
Excerpt: as §1

For series [1], the system named is Convolvulus arvensis. Described as above. Format: in vivo. To be noted: after 2 weeks; spray to 21 day old plants; active ingredient mole/l: I 0.022, II 0.043, III 0.03, IV 0.043, V 0.043.
Excerpt: as §1

Another series relates to Cynodon daotylon. The description is as above. Format: in vivo. To be noted: after 2 weeks; spray to 21 day old plants; active ingredient mole/l: I 0.022, II 0.043, III 0.03, IV 0.043, V 0.043.
Excerpt: as §1

For another series, the system named is Rubus Sanguineus. Described as above. Format: in vivo. To be noted: after 2 weeks; spray to 21 day old plants; active ingredient mole/l: I 0.022, II 0.043, III 0.03, IV 0.043, V 0.043.
Excerpt: as §1

Series [2] concerns Agropyron repens (quackgrass). Described as above. As to conditions: after 2 weeks; spray to 21 day old plants; active ingredient mole/l: I 0.022, II 0.043, III 0.03, IV 0.043, V 0.043. Format: in vivo.
Excerpt: as §1

The subject of a further series is Phragmites australis. Described as above. Format: in vivo. As to conditions: after 2 weeks; spray to 21 day old plants; active ingredient mole/l: I 0.022, II 0.043, III 0.03, IV 0.043, V 0.043.
Excerpt: as §1

A further series has as its system Polygonum equiseliforme. Described as above. Format: in vivo. As to conditions: after 2 weeks; spray to 21 day old plants; active ingredient mole/l: I 0.022, II 0.043, III 0.03, IV 0.043, V 0.043.
Excerpt: as §1

Another series concerns Cyperus Rotundus. Format: in vivo. As to conditions: after 2 weeks; spray to 21 day old plants; active ingredient mole/l: I 0.022, II 0.043, III 0.03, IV 0.043, V 0.043. The text has this: The spray, a water solution containing active ingredient and a surfactant is applied to the plants in different sets of pans at several rates (kilogram per dunam) of active ingredient. […] The post-emergence herbicidal activity index used in Table II and III is as follows: […]

Another series concerns sinapis arvensis. The series is described as follows: soil-applied (pre-emergence) test in planted trays, visual percent inhibition. To be noted: Mutarda arvensis, 336 h, read-out: % inhibition. C; for inhibition at 1000 g/ha: rate 1.0 KG/HECTARE. The class given is in vivo. As to the method:
(§2) Plastic trays were planted with green cynondon dactylon, convolvulus arvensis and sinapis arvensis and covered with a good grade of top soil. All materials were applied with a laboratory sprayer that delivered a volume of 187 1/hectare. The trays of soil were thereafter watered lightly to activate the aminotriazole salts. The experiment was conducted twice and each was arranged in a completely random design with three replications. Visual estimates of percent inhibition were made at two weeks after treatment.

Series [3] relates to Convolvulus arvensis. Described as above. The class given is in vivo. As to conditions: 336 h, read-out: % inhibition. B; for inhibition at 1000 g/ha: rate 1.0 KG/HECTARE. How it is done:
as §2

Another series concerns cynodon dactylon. The description is as above. Format: in vivo. As to conditions: 336 h; for inhibition at 1000 g/ha: rate 1.0 KG/HECTARE. How it is done: as §2
A short description of series [4]: solubility and crystallization of the salts in water. As to conditions: for solubility: at room temperature. The class given is physicochemical.
Series [5] can be described thus: herbicidal activity when applied to the soil (statement in the text). The class given is in vivo. As to conditions: soil application.
Where [6] appears, read: rate 0.5 KG/HECTARE, two weeks after treatment.
The mark [7] stands for this setting: rate 1.5 KG/HECTARE, two weeks after treatment.
For post-emergence herbicidal activity index, TABLE III, G in this document: key: 0: No injury; 1: Slight injury; 2: Moderate injury; 3: Severe injury; 4: Killed.
For post-emergence herbicidal activity index, TABLE III, H in this document: key: 0: No injury; 1: Slight injury; 2: Moderate injury; 3: Severe injury; 4: Killed.

Usually inhibition stands for the percentage by which the read-out fell short of the control. For `O=C(O)CN(CC(=O)O)CP(=O)(O)O` [II, Di(3-amino-1,2,4-triazole)NPMIDA salt], in the series with various plant species, the “herbicidal activity compared with the related amine (IPA) salt” value is “far more superior activity”. Moreover, the “post-emergence herbicidal activity index, TABLE III, E” value in the series on Pennisetum clandestinum stood at 3. Also, the “post-emergence herbicidal activity index, TABLE III, H” value in the series with Avena sterilis is recorded as 3. The “post-emergence herbicidal activity index, TABLE III, C” value with Inula Viscosa is listed as 3. Besides, the “post-emergence herbicidal activity index, TABLE III, G” value in the series on Convolvulus arvensis [1] amounted to 2. Besides, the “post-emergence herbicidal activity index, TABLE III, F” value in the series on Cynodon daotylon is on record as 2. The “post-emergence herbicidal activity index, TABLE III, B” value in the series with Rubus Sanguineus is reported as 2. Moreover, in series [2], the “post-emergence herbicidal activity index, TABLE III, J” value was determined as 2. Further, the “post-emergence herbicidal activity index, TABLE III, D” value with Phragmites australis amounted to 3. Further, in the series on Polygonum equiseliforme, the “post-emergence herbicidal activity index, TABLE III, A” value came to 3. Besides, the “post-emergence herbicidal activity index, TABLE III, I” value in the series with Cyperus Rotundus amounted to 3. Also, the inhibition at 700 g/ha is 65% in the series on sinapis arvensis, 55% in the series on Convolvulus arvensis [3] and 40% in the series on cynodon dactylon (read-out: % inhibition. A). Also, the inhibition at 1200 g/ha was 80% in the series on sinapis arvensis, 70% in the series with Convolvulus arvensis [3] and 70% in the series with cynodon dactylon (read-out: % inhibition. A).

In the case of `O=C(O)CNCP(=O)(O)O` [IV, Mono(Isopropylamine)NPMG salt (ROUNDUP^(R)), reference compound], the crystalization result in series [4] (at lower temperature (0-S^oc)) is given as “crystalization of the salt may occur”. Also, the solubility in [4] (listed as NPMG.IPA) came out at 480 g/1. For the same compound, the “herbicidal activity when applied to the soil” value in series [5] is given as “little herbicidal activity”.

With `O=C(O)CNCP(=O)(O)O` [I, Di(3-amino-1,2,4-triazole)NPMG salt], the antagonistic interaction entry with various plant species (applied to many species of weed, especially quackgrass) is reported as “no antagonistic interaction”. The “speed of phytotoxic action (knock down effect)” value in the series with various plant species (first 4 days after application, compared with amine salt IV) is recorded as “faster phytotoxic action”. The “herbicidal activity compared with the related amine (IPA) salt” value in the series with various plant species is recorded as “at least the same result”. Besides, the crystalization entry in series [4] (at 0^oc) was “no crystalization”. Further, in [4] (listed as NPMG-Diaminotriazole salt), the solubility entry is reported as “at least 1000 g/1”. In addition, the inhibition at 500 g/ha with sinapis arvensis (setting [6]) was found to be 60%; in the series with Convolvulus arvensis [3] (setting [6]) it was 80%; in the series on cynodon dactylon (setting [6]) it was 45%. Also, the inhibition at 1000 g/ha in the series on sinapis arvensis (two weeks after treatment) is 90%; in the series on Convolvulus arvensis [3] (two weeks after treatment), 90%; in the series with cynodon dactylon (two weeks after treatment), 80%.

As for `O=C(O)CN(CC(=O)O)CP(=O)(O)O` [V, Mono(Isopropylamine)NPMIDA salt, reference compound], the “post-emergence herbicidal activity index, TABLE III, E” value in the series with Pennisetum clandestinum turned out to be 1. Also, the “post-emergence herbicidal activity index, TABLE III, H” value in the series on Avena sterilis is listed as 1. In addition, in the series on Inula Viscosa, the “post-emergence herbicidal activity index, TABLE III, C” value is 2. Further, the “post-emergence herbicidal activity index, TABLE III, G” value with Convolvulus arvensis [1] turned out to be 0. In the series on Cynodon daotylon, the “post-emergence herbicidal activity index, TABLE III, F” value is listed as 0. Further, the “post-emergence herbicidal activity index, TABLE III, B” value in the series on Rubus Sanguineus came out at 1. In [2], the “post-emergence herbicidal activity index, TABLE III, J” value was 1. Besides, the “post-emergence herbicidal activity index, TABLE III, D” value in the series with Phragmites australis is listed as 1. Also, the “post-emergence herbicidal activity index, TABLE III, A” value in the series on Polygonum equiseliforme came out at 1. In addition, the “post-emergence herbicidal activity index, TABLE III, I” value in the series with Cyperus Rotundus amounted to 1.

On to `CP(=O)(O)CCC(N)C(=O)O` (stereo not drawn) [III, Di(3-amino-1,2,4-triazole)Phosphino-thricine salt.], for which the “post-emergence herbicidal activity index, TABLE III, E” value in the series with Pennisetum clandestinum is on record as 3. Also, the “post-emergence herbicidal activity index, TABLE III, H” value with Avena sterilis stood at 3. Further, the “post-emergence herbicidal activity index, TABLE III, C” value with Inula Viscosa is given as 3. Further, in the series on Convolvulus arvensis [1], the “post-emergence herbicidal activity index, TABLE III, G” value was found to be 3. In addition, in the series on Cynodon daotylon, the “post-emergence herbicidal activity index, TABLE III, F” value came to 3. Further, in the series with Rubus Sanguineus, the “post-emergence herbicidal activity index, TABLE III, B” value is 3. The “post-emergence herbicidal activity index, TABLE III, J” value in [2] turned out to be 3. Also, in the series on Phragmites australis, the “post-emergence herbicidal activity index, TABLE III, D” value amounted to 2. In the series on Polygonum equiseliforme, the “post-emergence herbicidal activity index, TABLE III, A” value is reported as 3. Besides, the “post-emergence herbicidal activity index, TABLE III, I” value with Cyperus Rotundus is reported as 3. Also, the figures for the inhibition at 1000 g/ha with sinapis arvensis (two weeks after treatment), with Convolvulus arvensis [3] (two weeks after treatment) and in the series with cynodon dactylon (two weeks after treatment) were 30%, 30% and 10%, respectively. The figures for the inhibition at 1500 g/ha in the series with sinapis arvensis (setting [7]), in the series with Convolvulus arvensis [3] (setting [7]) and in the series on cynodon dactylon (setting [7]) were 60%, 50% and 20%, respectively.
